Here are results for 71 molecules from PubChem BioAssay AID179 (DTP/NCI, 2004).

The experiment concerns CEM cells HIV-1 protection, formazan growth assay. As to the kind of experiment: NCI AIDS Antiviral Assay. The conditions noted are these: for IC50: measured here: growth of uninfected CEM cells. In a few lines: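 Screen of anti-HIV-1 activity in human CEM cells using a formazan-based growth measurement at five drug concentrations. Hits with 50% or greater protection were repeated, and confirmation required reproducible complete protection.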

Active and inactive are the calls of the source.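 The calls were made as follows: active = compounds giving half or more protection of infected cells from virus-caused growth loss, again on retest; inactive = the rest.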 Where a SMILES comes first, the peptide text is derived from it. The star is where a group is joined. CH2Cl = ClC*

As for `CCOC(=O)CCC(NC(=O)OCc1ccccc1)C(=O)NC(CCC(=O)OCC)C(=O)NC(CCC(=O)OCC)C(=O)NC(CCC(=O)OCC)C(=O)NC(CCC(=O)OCC)C(=O)NC(CCC(=O)OCC)C(=O)NC(CCC(=O)OCC)C(=O)NC(CCC(=O)OCC)C(=O)NC(CCC(=O)OCC)C(=O)NC(CCC(=O)OCC)C(=O)NC(CCC(=O)OCC)C(=O)NC(CCC(=O)OCC)C(=O)OCC` (stereo unspecified), the outcome was inactive. By EC50 is commonly meant the midpoint of the concentration-response curve. By IC50 is commonly meant the concentration that gives 50% inhibition. Take `CN1CCCC(O)C1CNC12CC3CC(CC(C3)C1)C2` (stereo unspecified): the EC50 is greater than 794 µM and the IC50 turned out to be 245 µM. For `CSC1=N/C(=C\c2cccs2)C(=O)N1CN1CCCCC1`, in that order: greater than 200 µM and greater than 200 µM. With `CC(C)(C)c1cc(CCCCCCCC2(CCCCCCCc3cc(C(C)(C)C)cc(C(C)(C)C)c3)OC(COCCOCCCCCC#N)C(COCCOCCCCCC#N)O2)cc(C(C)(C)C)c1` (stereo unspecified), the result was inactive. For the molecule `NCCCNCc1c2ccccc2c(CNCCCN)c2ccccc12`, the EC50 is greater than 120 µM and the IC50 amounted to 1.95 µM.

For `CC(=O)C1C(c2ccccc2)C2(C)OC(=O)C(C#N)C12C` (stereo unspecified), the result was inactive. On the same count and under the same terms, then `CCC1C(C)c2c([nH]c3ccccc23)C2C(=O)N(c3ccccc3)C(=O)C21` (stereo unspecified), with “inactive”. Consider `CC(=O)OC[C@H]1CN(OC(C)=O)C[C@@H](n2cc(C)c(=O)[nH]c2=O)O1`, for which the EC50 was greater than 200 µM and the concentration for half-maximal inhibition (IC50) was greater than 200 µM. For `OC12COc3ccccc3C1Oc1ccccc1C2` (stereo unspecified), the result was inactive. Consider `Cc1coc2c1[C@@H](O)[C@]1(C)[C@@H](C)CC[C@H](O)[C@]1(O)C2`, for which the EC50 was greater than 200 µM and the half-inhibitory concentration (IC50) was greater than 200 µM.

Consider `Cn1nc2ccc3nccc(NCCNCCCl)c3c2n1`, for which the EC50 was greater than 1.17 µM and the IC50 was greater than 1.17 µM. In the case of `COC(=O)C1=C(C(=O)OC)C2=S(SC3=C2CCCC3)S1` (stereo unspecified), the outcome was inactive. `CC(=O)NC(CC(C)C)C(=O)NC(Cc1ccccc1)C(=O)CCl` (stereo not drawn) (Ac-Leu-Phe-CH2Cl; configuration not given here): the EC50 was greater than 200 µM and the IC50 was determined as 1.12 µM. For `CC(C)c1cccc(C(C)C)c1NC(=O)C(=O)C(C(=O)c1ccc2ccccc2c1)C1OC(=O)c2ccccc21` (stereo unspecified), in that order: greater than 67.6 µM and 34.7 µM. In the same order, the values of `COc1cc2c(cc1Oc1c(O)c(OC)cc3c1C(C)N(C)CC3)C(C)N(C)CC2` (stereo unspecified) are greater than 200 µM and greater than 200 µM. For `Clc1ccccc1CSc1ccc2nncc(SCc3ccccc3Cl)c2c1`, in that order: greater than 34.7 µM and greater than 34.7 µM. For `COC(=O)C1Cc2c([nH]c3ccccc23)C(C2CCCCC2)N1` (stereo unspecified), the outcome was inactive. Still for that read-out and setting: then `COc1ccccc1NC(=O)C1=C(C)NC(C)=C(C(=O)Nc2ccccc2OC)C1c1ccco1`, with “inactive”.

With `CC(=O)C1=C(C)Cn2c(=O)c3ccccc3c(=O)n2C1`, the EC50 was greater than 95.5 µM and the IC50 is greater than 95.5 µM. With `Cc1ccc(C)n1-c1ccccc1C1SCCCS1`, the EC50 was greater than 200 µM and the IC50 was found to be 195 µM. With `CC(=O)NNc1nc(C)c(C(=O)NNC(=O)C(=O)Nc2ccc(C)cc2[N+](=O)[O-])s1`, the EC50 is greater than 83.2 µM and the IC50 turned out to be 39.8 µM. In the same order, the values of `CC(C)(C)C(=O)/C=C/c1ccc(Oc2ccccc2)cc1` are greater than 25.7 µM and greater than 25.7 µM.

For the molecule `O=c1c(O)c(-c2cc(O)c(O)cc2O)oc2cc(O)c(C3OC(CO)C(O)C(O)C3O)c(O)c12` (stereo unspecified), the EC50 was greater than 200 µM and the IC50 was found to be 138 µM. For `[CH3][Sn]1([CH3])[O]CC(COc2cc(Cl)c(Cl)cc2Cl)[O]1` (stereo unspecified), in that order: greater than 24 µM and 15.5 µM. In the same order, the values of `Cc1ccn2c(=O)cc(CN3CCOCC3)nc2c1` are greater than 200 µM and greater than 200 µM. For `CC(C)[Si]1(C(C)C)OCC2OC(N3C(=O)NC(=O)C[C@@H]3C(O)c3ccccc3)CC2O[Si](C(C)C)(C(C)C)O1` (stereo partly specified), in that order: greater than 200 µM and 10.5 µM. Regarding `Cc1cc(N(CCC#N)CCC#N)ccc1/C(N=Nc1ccc(C(=O)O)cc1)=N\NC(=O)c1cc(Cl)ccc1O`, the EC50 was greater than 200 µM and the half-maximal inhibitory concentration (IC50) was determined as 112 µM. For `O=C(OCc1ccccc1)N1C[C@@H](OCc2ccccc2)[C@@H](OCc2ccccc2)[C@H]1CO`, in that order: greater than 200 µM and 10.7 µM.

Take `c1ccc(C2=NCCc3cc4c(cc32)OCO4)cc1`: the EC50 is greater than 200 µM and the IC50 was 141 µM. For `O=c1c2ccccc2nc2n1-c1ccccc1SC2`, the EC50 is greater than 97.7 µM and the IC50 is greater than 97.7 µM. Turning to `CC(C)C(/C=C/c1ccccc1)=N\NC(=O)N/N=C(/C=C/c1ccccc1)C(C)C`, the EC50 is greater than 6.76 µM and the IC50 is greater than 6.76 µM. Turning to `CCC[CH2][Sn]1([CH2]CCC)[O]Cc2nc(C)ccc2[O]1`, the EC50 is greater than 14.1 µM and the 50% inhibitory concentration (IC50) amounted to 3.16 µM. On to `Oc1ccccc1C=NCCSSCCN=Cc1ccccc1O`, for which the result was inactive.

Take `Oc1ccc2cc(SSc3ccc4cc(O)ccc4c3)ccc2c1`: the EC50 was greater than 200 µM and the IC50 stood at 8.13 µM. In the same order, the values of `COc1ccc(S(=O)(=O)c2ccc(C(=O)O)cc2)cc1` are greater than 200 µM and greater than 200 µM. In the same order, the values of `CCNCC1c2ccccc2-c2nc3ccccc3nc2-c2ccccc21` are greater than 60.3 µM and 8.32 µM.

With `O=S(Cc1ccc2c(c1)OCO2)c1ccccc1` (stereo unspecified), the EC50 was greater than 955 µM and the half-maximal inhibitory concentration (IC50) was determined as 661 µM. With `N/C(=N\N=C\C1CC2C=CC1C2)NO` (stereo unspecified), the result was inactive.

As for `CC(=O)O[C@H]1[C@@H]2CC(C)(C)CC2=C(C=O)C2(C=O)CC12C` (stereo partly specified), the EC50 was greater than 200 µM and the half-inhibitory concentration (IC50) was found to be 13.5 µM. For `CCOC(=O)c1ccc(CSc2ccccc2C(=O)OCC)c([N+](=O)[O-])c1`, in that order: greater than 7.08 µM and greater than 7.08 µM.

As for `CC1(C)CC(=O)C2=C(C1)Nn1c(nnc1C(F)(F)F)S2`, the EC50 was greater than 813 µM and the half-maximal inhibitory concentration (IC50) is 355 µM. For `O=C(/C=C/c1c(O)ccc2ccccc12)c1ccc2ccccc2c1`, in that order: greater than 112 µM and greater than 112 µM. For `COC(=O)CCN1c2ccccc2Sc2ccccc21`, in that order: greater than 66.1 µM and greater than 66.1 µM. With `CC1(Cl)C2c3ccccc3C(c3ccccc32)C1(C)Cl` (stereo unspecified), the EC50 is greater than 24 µM and the half-inhibitory concentration (IC50) was greater than 24 µM. Regarding `O=c1/c(=C\c2ccc(Cl)c(Cl)c2)sc2n1CCN=2`, the EC50 is greater than 200 µM and the half-maximal inhibitory concentration (IC50) is greater than 200 µM. Turning to `O=C(O)C1(C(=O)O)CC1(C(=O)O)C(=O)O`, the outcome was inactive. As to `CC12CCC(=O)N1c1ccc(Cl)cc1N2` (stereo unspecified), the EC50 was greater than 115 µM and the IC50 is greater than 115 µM.

As to `NC1=NS(=O)(=O)Nc2nc(-c3ccc(Cl)cc3)[nH]c21`, the EC50 is greater than 200 µM and the 50% inhibitory concentration (IC50) is greater than 200 µM.

Take `O=C(O)CN1CCN(CC(=O)O)CCN(CC(=O)O)CCN(CC(=O)O)CC1`: the EC50 is greater than 200 µM and the IC50 is greater than 200 µM.

Consider `Nc1nc(Cl)cc(NCC2(CO)CC(Cc3ccccc3)C2)n1` (stereo unspecified), for which the EC50 was greater than 20 µM and the half-inhibitory concentration (IC50) came to 0.174 µM.

As to `Cc1ccc(F)cc1NC(=O)O/N=C(\Cl)C(C)C`, the EC50 is greater than 20 µM and the IC50 turned out to be 3.8 µM. With `Cc1cc(=O)oc2c1cc(OCC(=O)OCCN1CCCCC1)c1occ(C)c12`, the result was inactive. Regarding `CCCCCCCCCCCCCCCCCCNC(=O)OCC(CNS(=O)(=O)CCC[n+]1cccc2ccccc21)COC` (stereo unspecified), the EC50 was greater than 200 µM and the IC50 is 0.676 µM. For `O=c1c(F)cn2c(=O)n1CCCCCCCn1c(=O)c(F)cn(c1=O)CCCCCCC2`, in that order: greater than 200 µM and 155 µM.

Regarding `O=C(O)c1c(-c2ccccc2)nn2c1ccc1ccccc12`, the EC50 was greater than 200 µM and the 50% inhibitory concentration (IC50) is greater than 100 µM. As to `CCN(CC)CCSc1c(C(C)=O)c(=O)n(-c2ccccc2)c(=S)n1-c1ccccc1`, the EC50 was greater than 200 µM and the IC50 was determined as 1.15 µM. For `CCCCCCCC1C(C)c2c([nH]c3ccccc23)C2C(=O)N(c3ccc(OC)cc3)C(=O)C21` (stereo unspecified), in that order: greater than 200 µM and 10.2 µM. In the same order, the values of `Cc1cn(C2C/C(=C\C#N)C(CO[Si](C)(C)C(C)(C)C)O2)c(=O)[nH]c1=O` (stereo unspecified) are greater than 200 µM and 182 µM. As to `O=C1CCCCCCCCCCC1CN1CCCCC1` (stereo unspecified), the result was inactive. For the molecule `CCC1(CC(=O)N(C)C)C=CCN(C(=O)Oc2ccccc2)C1` (stereo unspecified), the EC50 was greater than 58.9 µM and the half-maximal inhibitory concentration (IC50) is greater than 58.9 µM. Take `c1ccc(COCC2OC3c4ccccc4COC3C2OCc2ccccc2)cc1` (stereo unspecified): the outcome was inactive. As for `O=C/C(=C(/Br)I)c1ccccc1`, the EC50 was greater than 200 µM and the half-maximal inhibitory concentration (IC50) was 1.26 µM. As for `CCN(CC)c1ccc2c(c1)N=C1N=CC=CN1C2(c1ccc(N(C)C)cc1)c1ccc(N(C)C)cc1`, the result was inactive. On the same count and under the same terms, for `CCn1cc(C(=O)O)c(=O)c2ccc(C)nc21` the value was “inactive”. On to `N=C(N)N1CCC(N2CCOCC2)CC1`, for which the EC50 was greater than 200 µM and the IC50 was greater than 200 µM. As to `CC(=O)Oc1ccc(-c2oc3c([C@H]4C=C(C)CC(c5ccc(OC(C)=O)cc5OC(C)=O)[C@@H]4C(=O)c4ccc(OC(C)=O)c(CC=C(C)C)c4OC(C)=O)c(OC(C)=O)cc(OC(C)=O)c3c(=O)c2CC=C(C)C)c(OC(C)=O)c1` (stereo partly specified), the EC50 is greater than 8.13 µM and the IC50 is greater than 8.13 µM. Consider `CC(=O)NNc1nc(C)c(C(/C=C/c2ccccc2O)=N/NC(=O)c2ccncc2)s1`, for which the EC50 is greater than 22.4 µM and the concentration for half-maximal inhibition (IC50) was greater than 22.4 µM. Regarding `Cc1ccc(O)c(OC2OC(C(=O)O)C(O)C(O)C2O)c1` (stereo unspecified), the EC50 was greater than 832 µM and the IC50 is greater than 832 µM. For `COc1cccc(C2N3CCCCC3[C@@H]3c4[nH]c5ccccc5c4CCN23)c1OC` (stereo partly specified), the EC50 was greater than 33.9 µM and the IC50 is greater than 33.9 µM. For `COc1ccc(OC)c(CCc2cc(OC)c(OC)cc2C)c1`, the EC50 was greater than 58.9 µM and the IC50 is 2.82 µM. In the same order, the values of `COc1ccc(C=C(C(C)=O)C(C)=O)cc1` are greater than 437 µM and 58.9 µM.
